{"source": "patent EP4577243B1", "about": "“STABLE LIPID OR LIPIDOID NANOPARTICLE SUSPENSIONS” (Ethris GmbH, priority 2022, dated 2024)", "assay": "pKa of ionizable lipids (Tables 1 to 3)", "type": "physicochemical", "conditions": "Table 2"}
{"smiles": "CCCCCCCC(=O)N(CCCN(C)C)C(CCCCCCCCC(=O)OC(CCCCCC)CCCCCC)CCCCCCCCC(=O)OC(CCCCCC)CCCCCC", "note": "[II-10]", "values": [{"measurement": "pKa", "value": 6.16}]}
